Assay results taken from ChEMBL document CHEMBL1201862, “PubChem BioAssay data set” (2004).
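Test compounds were applied to cells in 96-well plates for 48 hours at 5 doses. Abbreviation: GI50, concentration required for 50% inhibition of growth.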 Calls of active or inactive are those of the source. Rule as the data show it: active = GI50 up to about 1.1 µM and inactive = higher.

Columns and labels:
Assay in all cases: NCI-60 cell line screen, 48 h
TK-10 = system: TK-10
MOLT-4 = system: MOLT-4
SF-295 = system: SF-295
SN12C = system: SN12C
MCF7 = system: MCF7
T47D = system: T47D
A498 = system: A498
UO-31 = system: UO-31
OVCAR-8 = system: OVCAR-8
OVCAR-4 = system: OVCAR-4
SNB-75 = system: SNB-75
NCI-H460 = system: NCI-H460
ACHN = system: ACHN
Hs-578T = system: Hs-578T
HCT-15 = system: HCT-15
OVCAR-5 = system: OVCAR-5
COLO 205 = system: COLO 205
SK-OV-3 = system: SK-OV-3
UACC-257 = system: UACC-257
SR = system: SR
RPMI-8226 = system: RPMI-8226
HT-29 = system: HT-29
NCI-H23 = system: NCI-H23
SK-MEL-2 = system: SK-MEL-2
MDA-MB-231 = system: MDA-MB-231
NCI/ADR-RES = system: NCI/ADR-RES
SNB-19 = system: SNB-19
KM12 = system: KM12
786-0 = system: 786-0
MDA-N = system: MDA-N
HCT-116 = system: HCT-116
SW-620 = system: SW-620
NCI-H522 = system: NCI-H522
A549 = system: A549
BT-549 = system: BT-549
EKVX = system: EKVX
DU-145 = system: DU-145
CAKI-1 = system: CAKI-1
M14 = system: M14
SK-MEL-5 = system: SK-MEL-5
SF-539 = system: SF-539
HOP-62 = system: HOP-62
RXF 393 = system: RXF 393
HOP-92 = system: HOP-92
MDA-MB-435 = system: MDA-MB-435
PC-3 = system: PC-3
Malme-3M = system: Malme-3M
NCI-H226 = system: NCI-H226
UACC-62 = system: UACC-62
SK-MEL-28 = system: SK-MEL-28
SF-268 = system: SF-268
U-251 = system: U-251
IGROV-1 = system: IGROV-1
OVCAR-3 = system: OVCAR-3
HCC 2998 = system: HCC 2998
K562 = system: K562
CCRF-CEM = system: CCRF-CEM
LOX IMVI = system: LOX IMVI
HL-60 = system: HL-60

O=C1COC(c2ccccc2O)=NN1CCCN1CCCC1 was tested, and the GI50 (TK-10) was > 100 µM (inactive), the GI50 (MOLT-4) was > 100 µM (inactive) and the GI50 (SF-295) was > 100 µM (inactive). The GI50 (SN12C) was > 100 µM (inactive), the GI50 (MCF7) was > 100 µM (inactive) and the GI50 (T47D) was > 100 µM (inactive). The GI50 (A498) was > 100 µM (inactive), the GI50 (UO-31) was > 100 µM (inactive) and the GI50 (OVCAR-8) was > 100 µM (inactive). For the same compound, the GI50 (OVCAR-4) was > 100 µM (inactive), the GI50 (SNB-75) was > 100 µM (inactive) and the GI50 (NCI-H460) was > 100 µM (inactive). For the same compound, the GI50 (ACHN) was > 100 µM (inactive), the GI50 (Hs-578T) was > 100 µM (inactive) and the GI50 (HCT-15) was greater than 100 µM. The GI50 (OVCAR-5) was > 100 µM (inactive), the GI50 (COLO 205) was > 100 µM (inactive) and the GI50 (SK-OV-3) was > 100 µM (inactive). The GI50 (UACC-257) was > 100 µM (inactive), the GI50 (SR) was 60.3 µM (inactive) and the GI50 (RPMI-8226) was > 100 µM (inactive). For the same compound, the GI50 (HT-29) was > 100 µM (inactive), the GI50 (NCI-H23) was > 100 µM (inactive) and the GI50 (SK-MEL-2) was > 100 µM (inactive). The GI50 (MDA-MB-231) was > 100 µM (inactive), the GI50 (NCI/ADR-RES) was > 100 µM (inactive) and the GI50 (SNB-19) was > 100 µM (inactive). For the same compound, the GI50 (KM12) was > 100 µM (inactive), the GI50 (786-0) was > 100 µM (inactive) and the GI50 (MDA-N) was > 100 µM (inactive). For the same compound, the GI50 (HCT-116) was > 100 µM (inactive), the GI50 (SW-620) was > 100 µM (inactive) and the GI50 (NCI-H522) was > 100 µM (inactive). For the same compound, the GI50 (A549) was > 100 µM (inactive), the GI50 (BT-549) was > 100 µM (inactive) and the GI50 (EKVX) was > 100 µM (inactive). The GI50 (DU-145) was > 100 µM (inactive), the GI50 (CAKI-1) was > 100 µM (inactive) and the GI50 (M14) was > 100 µM (inactive). The GI50 (SK-MEL-5) was > 100 µM (inactive), the GI50 (SF-539) was > 100 µM (inactive) and the GI50 (HOP-62) was > 100 µM (inactive). For the same compound, the GI50 (RXF 393) was > 100 µM (inactive), the GI50 (HOP-92) was > 100 µM (inactive) and the GI50 (MDA-MB-435) was > 100 µM (inactive). For the same compound, the GI50 (PC-3) was > 100 µM (inactive), the GI50 (Malme-3M) was > 100 µM (inactive) and the GI50 (NCI-H226) was > 100 µM (inactive). The GI50 (UACC-62) was > 100 µM (inactive), the GI50 (SK-MEL-28) was > 100 µM (inactive) and the GI50 (SF-268) was > 100 µM (inactive). For the same compound, the GI50 (U-251) was > 100 µM (inactive), the GI50 (IGROV-1) was > 100 µM (inactive) and the GI50 (OVCAR-3) was > 100 µM (inactive).
With COc1cc(C(N)=O)cc(NC(=O)/C=C/c2ccccc2)c1OC the GI50 (TK-10) was > 100 µM (inactive), the GI50 (MOLT-4) was > 100 µM (inactive) and the GI50 (SF-295) was 59.6 µM (inactive). For the same compound, the GI50 (SN12C) was > 100 µM (inactive), the GI50 (MCF7) was > 100 µM (inactive) and the GI50 (T47D) was 71.1 µM (inactive). The GI50 (A498) was > 100 µM (inactive), the GI50 (UO-31) was > 100 µM (inactive) and the GI50 (OVCAR-8) was 61.8 µM (inactive). The GI50 (OVCAR-4) was > 100 µM (inactive), the GI50 (SNB-75) was 19.7 µM (inactive) and the GI50 (NCI-H460) was > 100 µM (inactive). The GI50 (ACHN) was > 100 µM (inactive), the GI50 (Hs-578T) was > 100 µM (inactive) and the GI50 (HCT-15) was greater than 100 µM. For the same compound, the GI50 (OVCAR-5) was > 100 µM (inactive), the GI50 (COLO 205) was > 100 µM (inactive) and the GI50 (SK-OV-3) was 49.4 µM (inactive). The GI50 (UACC-257) was > 100 µM (inactive), the GI50 (SR) was 74.8 µM (inactive) and the GI50 (RPMI-8226) was > 100 µM (inactive). For the same compound, the GI50 (HT-29) was > 100 µM (inactive), the GI50 (NCI-H23) was > 100 µM (inactive) and the GI50 (SK-MEL-2) was > 100 µM (inactive). The GI50 (MDA-MB-231) was > 100 µM (inactive), the GI50 (NCI/ADR-RES) was > 100 µM (inactive) and the GI50 (SNB-19) was 27.7 µM (inactive). For the same compound, the GI50 (KM12) was > 100 µM (inactive), the GI50 (786-0) was > 100 µM (inactive) and the GI50 (HCC 2998) was > 100 µM (inactive). For the same compound, the GI50 (MDA-N) was > 100 µM (inactive), the GI50 (HCT-116) was > 100 µM (inactive) and the GI50 (SW-620) was > 100 µM (inactive). For the same compound, the GI50 (NCI-H522) was 64.9 µM (inactive), the GI50 (A549) was > 100 µM (inactive) and the GI50 (BT-549) was > 100 µM (inactive). For the same compound, the GI50 (EKVX) was 89.7 µM (inactive), the GI50 (DU-145) was > 100 µM (inactive) and the GI50 (CAKI-1) was > 100 µM (inactive). The GI50 (M14) was > 100 µM (inactive), the GI50 (SK-MEL-5) was 64.7 µM (inactive) and the GI50 (SF-539) was 83 µM (inactive). For the same compound, the GI50 (HOP-62) was > 100 µM (inactive), the GI50 (RXF 393) was > 100 µM (inactive) and the GI50 (HOP-92) was 35.7 µM (inactive). The GI50 (MDA-MB-435) was > 100 µM (inactive), the GI50 (K562) was > 100 µM (inactive) and the GI50 (CCRF-CEM) was > 100 µM (inactive). For the same compound, the GI50 (PC-3) was > 100 µM (inactive), the GI50 (Malme-3M) was > 100 µM (inactive) and the GI50 (UACC-62) was > 100 µM (inactive). The GI50 (SK-MEL-28) was > 100 µM (inactive), the GI50 (SF-268) was 64.3 µM (inactive) and the GI50 (U-251) was > 100 µM (inactive). The GI50 (LOX IMVI) was > 100 µM (inactive), the GI50 (IGROV-1) was > 100 µM (inactive) and the GI50 (HL-60) was > 100 µM (inactive). For the same compound, the GI50 (OVCAR-3) was 97.5 µM (inactive).
